Patent US20260027096A1, “PHD INHIBITORS” (Oxford University Innovation Limited, priority 2023, published 2026)

Key:
[1] = biological target: KDM6B: lysine specific demethylase 6B (Homo sapiens (Human), UniProt O15054); experiment: KDM6B LCMS demethylation assay
Experimental: The peptide substrate for KDM5B was a 21-mer histone-H3 peptide (ARTK(me3)[sequence]), as synthesized by Peptide Protein Research (Hampshire, UK). The KDM6B peptide substrate was a 17-mer histone-H3 peptide ([sequence](me3)[sequence]), as synthesized by GL Biochem (Shanghai) Ltd (Shanghai, China).
KDM6B reactions were performed under optimized buffer conditions (50 mM MES pH 7.0). […] The enzyme reaction was progressed for 30 minutes and the reaction stopped by addition of formic acid to a final concentration of 1% (v/v). Control reactions included a 0.5% DMSO control and a reaction with a known inhibitor of KDM6B (10 mM GSKJ1,^j).
(§2) 4 ml of enzyme reaction were injected and loaded onto a ZORBAX RRHD Eclipse Plus C18 column (Agilent Technologies, CA, US). Solvent A consisted of LCMS grade water containing 0.1% (v/v) formic acid and solvent B consisted of acetonitrile containing 0.1% (v/v) formic acid. […] The mass spectrometer was operated in the positive ion mode with a drying gas temperature of 280° C., drying gas flow rate of 13 L/min, nebulizer pressure of 40 psig, sheath gas temperature of 350° C., sheath gas flow rate of 12 L/min, capillary voltage of 4000 V, nozzle voltage of 1000 V. All acquired data were analyzed using Agilent MassHunter Qualitative Analysis (Version B.07.00) software.

[2] = test system: other 2OG oxygenases (off-target sites commonly inhibited by existing PHD inhibitors); experiment: Selectivity versus other 2OG oxygenases / off-target sites (FIG. 14); format: biochemical
[3] = biological target: KDM4A: lysine specific demethylase 4A (Homo sapiens (Human), UniProt O75164); experiment: KDM4A LCMS demethylation assay
Experimental: as §2

HIF1-α in HEK293 T cells = experiment: Immunoblots of HEK293 T cells; format: cell-based; settings: HEK293 T cells, 0.5, 1, 5, 10, 20, 50 and 100 μM, 18 hours
Experimental: Cells were grown to 90% confluency.
Protocols for cell culture and immunoblotting were performed using the established methods.

[4] = biological target: KDM5B: lysine specific demethylase 5B (Homo sapiens (Human), UniProt Q9UGL1); experiment: KDM5B LCMS demethylation assay
Experimental: KDM5B enzyme reactions were performed under optimized buffer conditions (50 mM MES pH 7.0, 50 mM NaCl, 1 mM TCEP). […] The enzyme reaction was progressed for 30 minutes, and the reaction stopped by addition of formic acid to a final concentration of 1% (v/v). Control reactions included a 0.5% DMSO control and a reaction with a known inhibitor of KDM5B (10 mM KDOAM25, ^i).
as §2

HIF1-α in Hep3B cells = experiment: Immunoblots of Hep3B cells; format: cell-based; settings: 100 μM and 20 μM, 3 hours
Experimental: Example 159—Immunoblots of Hep3B cells treated with compounds of the invention Hep3B cells were treated with 117, 119, 122 and 123 of the invention (Examples 93, 95, 98 and 99) at 100 μM (A) and 20 μM (B) PHD inhibitors for 3 hours. The blots show protein levels of HIF1-α and β-actin at the 3rd hour after treatment.

PHD2 = PHD2 (Homo sapiens (Human), UniProt Q9GZT9); experiment: PHD2 RF-MS (RapidFire LC-MS) hydroxylation assay; format: biochemical
Experimental: In brief, cDNA encoding for the catalytic domain of tPHD2 (181-426 residues) was cloned into the pET28a (+)/pET24a (+) vectors (Novagen), to enable production of tPHD2 (residues 181-426) protein with/without an N-terminal His6-tag. The tPHD2 (residues 181-426) encoding construct was transformed into the Escherichia coli BL21 DE3 cell line; protein production was induced with 0.5 mM […] (3-5 hr at 28° C.). […] The protein was exchanged into 50 mM Tris-HCl buffer (pH 7.5) and concentrated to % 40 mg/ml.
Tris(hydroxymethyl)aminomethane was from Fisher. Ferrous ammonium sulfate (FAS), 2-oxoglutarate (2OG) and L-ascorbic acid were from Sigma Aldrich; solutions of these were prepared freshly each day. All inhibition assays were carried out in 384-well polypropylene plates (Greiner Bio-One). PHD2 assays were performed in assay buffer (50 mM Tris. Cl pH 7.5, 50 mM NaCl). […] The final assay concentration of DMSO was kept constant at 0.5%. PHD2 protein was prepared at a concentration of 300 nM in assay buffer and 25 μl dispensed across each 384-well assay plate. The PHD2 solution was allowed to equilibrate with the inhibitors for 15 minutes at room temperature; the enzyme reaction then initiated by dispense of 25 μl of substrate (20 μM FAS, 200 µM L-ascorbic acid, 10 μM CODD peptide and 20 μM 2OG in the assay buffer. Enzyme reactions were allowed to proceed for 20 minutes at room temperature and the reaction terminated by addition of 10% formic acid (5 μl). Assay plates were then transferred to a RapidFire RF360 sampling robot (Agilent) connected to an Agilent 6530 accurate mass quadrupole-time-of-flight (Q-TOF) mass spectrometer. Assay samples were aspirated under vacuum and loaded onto a C4 solid phase extraction (SPE) cartridge. After loading the C4 SPE was washed with 0.1% formic acid in water to remove non-volatile buffer salts and then peptide was eluted from the SPE with 85% acetonitrile, 15% water containing 0.1% formic acid onto the mass spectrometer. Peptide charge states were monitored in positive mode. Ion chromatogram data were extracted for the +2 charge state and peak area data integrated using RapidFire Integrator software (Agilent). % conversion of the CODD peptide substrate to the +16 hydroxylated peptide was calculated using the equation: % conversion=100×hydroxylated/(hydroxylated+non-hydroxylated peptide). IC50 values were determined from non-linear regression plots using GraphPad prism.
Example 158—Structure activity relationship (SAR) studies for PHD inhibition SAR studies for PHD inhibition were carried out on the compounds of the invention. Compounds were screened against PHD2 using the RF-MS hydroxylation assay.

human THP-1 cells = experiment: Proliferation and apoptosis of THP-1 cells; format: cell-based
Excerpt: (§1) Viable cells were counted by trypan blue exclusion at the indicated time points. To analyse cells undergoing apoptosis, cells were suspended in binding buffer containing PE-conjugated Annexin-V or FITC-conjugated Annexin-V, and either PI or DAPI.
To determine consequences of Daprodustat (2) and IOX5 (68, example 46) treatment on AML cells driven by the MLL-AF9→MEIS1/HOXA9 axis, mouse iMLL-AF9-and Meis1Hoxa9-transformed AML cells were employed, as well as human THP-1 cells, which harbour the MIL-AF9 translocation. […] Thus, providing compelling evidence that PHD inhibition compromises AML cells driven by the MLL-AF9→MEIS1/HOXA9 axis.

[5] = test system: MV411 AML cells in NBSGW recipient mice; experiment: MV411 xenotransplantation in NBSGW mice, combination with Venetoclax; format: in vivo, mouse; settings: 14 days treatment; IOX5 i.p. twice daily, Venetoclax o.g. once daily
Experimental: 14 days following transplantation, recipient mice were treated with IOX5 (68, example 46), Venetoclax or vehicle control. Dosing regimen consisted of 2× daily via i.p. injection (IOX5 (68, example 46) or vehicle) and/or 1× daily via o.g. (Venetoclax or vehicle). […] (E-G) Percentage of human CD45+CD33+CD14+ cells in the BM, spleen and liver, respectively (n=5). (H) Survival curve of mice treated with IOX5 (68, example 46), Venetoclax, IOX5 (68, example 46)+Venetoclax or vehicle control (n=6-7). (I-J) Proliferation and Annexin-V+DAPI+analyses, respectively, of THP-1 cells treated with Ven, IOX5, FIH inhibitor (FIHi; DM-NOFD), IOX5 (68, example 46)+FIHi, IOX5 (68, example 46)+Ven, FIHi+Ven, IOX5 (68, example 46)+FIHi+Ven or vehicle control (n=6). Statistical significance represented as in (A-B). Data represent mean±SEM; *p<0.05; ** p<0.01; *** p<0.001; **** p<0.0001.
100,000 THP-1 cells, 100,000 OCI-AM3 cells or 100,000 MV411 cells (for combination experiments) were tail vein injected into non-irradiated 10-to 12-week-old mixed gender NBSGW mice and began drug treatment 14 days after transplantation. […] Mice were culled 5 weeks after transplantation.
Mice in combination treatment experiments with Venetoclax (ABT-199) (MCE) were dosed once daily with 100 mg/kg via oral gavage (o.g.).
Further to findings in Example 170, the efficacy of IOX5 (68, example 46)+Venetoclax combination in vivo was investigated (FIG. 38D). MV411 AML cells were engrafted (with MLL-AF4 and FLT3-ITD mutation) and the recipient mice were treated with a vehicle, IOX5 (68, example 46), Venetoclax, and a combination of IOX5 (68, example 46)+Venetoclax.

[6] = test system: THP-1, MOLM13, OCI-AML3 and MV411 cells; experiment: Proliferation and apoptosis of human AML cell lines THP-1, MOLM13, OCI-AML3 and MV411; format: cell-based; settings: 50 μM, single agent
Experimental: (A-B) Proliferation and apoptosis of human AML cell lines THP-1, MOLM13, OCI-AML3 and MV411 treated with vehicle control and 50 μM Molidustat (5). Data represent mean±SEM; **** p<0.0001.
(A-B) Proliferation and apoptosis of human AML cell lines MOLM-13, OCI-AML3, MV411 and THP-1 treated with vehicle control, 50 μM Daprodustat (2), 50 μM IOX5 (68, example 46), 0.1 μM Venetoclax (MOLM-13 and MV411), 0.01 μM Venetoclax (OCI-AML3 and THP-1) and combination therapy. (C-D) Early-([…]) and late stage (PI^+ Annexin^+) apoptosis of human AML patient samples treated with vehicle control, 50 μM Daprodustat (2), 50 μM IOX5 (68, example 46), 0.01 μM Venetoclax and combination therapy. Data represent mean±SEM; * p<0.05; ** p<0.01, *** p<0.001, **** p<0.0001.
as §1

Sequence of PHD2 (Q9GZT9 181-426): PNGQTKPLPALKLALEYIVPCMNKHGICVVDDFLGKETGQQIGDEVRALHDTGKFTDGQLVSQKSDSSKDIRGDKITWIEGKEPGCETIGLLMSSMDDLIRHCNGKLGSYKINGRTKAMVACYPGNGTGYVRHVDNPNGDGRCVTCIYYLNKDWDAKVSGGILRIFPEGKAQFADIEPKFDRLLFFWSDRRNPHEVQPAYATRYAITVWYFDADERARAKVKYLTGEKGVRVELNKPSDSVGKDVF
Sequence of KDM6B: lysine specific demethylase 6B (O15054 1141-1590): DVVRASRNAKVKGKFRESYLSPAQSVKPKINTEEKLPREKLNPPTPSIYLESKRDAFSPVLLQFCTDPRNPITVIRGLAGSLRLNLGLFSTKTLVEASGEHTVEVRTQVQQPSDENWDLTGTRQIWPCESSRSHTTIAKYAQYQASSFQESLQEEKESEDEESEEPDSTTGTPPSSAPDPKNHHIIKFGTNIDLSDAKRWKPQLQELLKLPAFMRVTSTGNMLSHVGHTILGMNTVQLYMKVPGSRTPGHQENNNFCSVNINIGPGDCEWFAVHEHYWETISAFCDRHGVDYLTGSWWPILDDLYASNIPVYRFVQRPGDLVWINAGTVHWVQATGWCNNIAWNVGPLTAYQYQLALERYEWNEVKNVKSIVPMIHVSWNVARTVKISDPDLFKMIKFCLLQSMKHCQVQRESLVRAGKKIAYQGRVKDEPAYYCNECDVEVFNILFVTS
Sequence of KDM4A: lysine specific demethylase 4A (O75164 1-359): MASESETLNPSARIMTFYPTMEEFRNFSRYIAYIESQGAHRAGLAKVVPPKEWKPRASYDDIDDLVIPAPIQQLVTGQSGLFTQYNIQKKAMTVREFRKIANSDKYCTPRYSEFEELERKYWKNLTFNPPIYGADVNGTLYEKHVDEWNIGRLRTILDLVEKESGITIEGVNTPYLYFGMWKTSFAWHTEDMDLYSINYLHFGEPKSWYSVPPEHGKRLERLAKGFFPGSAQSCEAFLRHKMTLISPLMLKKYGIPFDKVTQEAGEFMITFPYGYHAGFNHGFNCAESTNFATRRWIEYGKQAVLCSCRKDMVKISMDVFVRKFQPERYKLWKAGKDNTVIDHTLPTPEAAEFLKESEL
Sequence of KDM5B: lysine specific demethylase 5B (Q9UGL1 1-822): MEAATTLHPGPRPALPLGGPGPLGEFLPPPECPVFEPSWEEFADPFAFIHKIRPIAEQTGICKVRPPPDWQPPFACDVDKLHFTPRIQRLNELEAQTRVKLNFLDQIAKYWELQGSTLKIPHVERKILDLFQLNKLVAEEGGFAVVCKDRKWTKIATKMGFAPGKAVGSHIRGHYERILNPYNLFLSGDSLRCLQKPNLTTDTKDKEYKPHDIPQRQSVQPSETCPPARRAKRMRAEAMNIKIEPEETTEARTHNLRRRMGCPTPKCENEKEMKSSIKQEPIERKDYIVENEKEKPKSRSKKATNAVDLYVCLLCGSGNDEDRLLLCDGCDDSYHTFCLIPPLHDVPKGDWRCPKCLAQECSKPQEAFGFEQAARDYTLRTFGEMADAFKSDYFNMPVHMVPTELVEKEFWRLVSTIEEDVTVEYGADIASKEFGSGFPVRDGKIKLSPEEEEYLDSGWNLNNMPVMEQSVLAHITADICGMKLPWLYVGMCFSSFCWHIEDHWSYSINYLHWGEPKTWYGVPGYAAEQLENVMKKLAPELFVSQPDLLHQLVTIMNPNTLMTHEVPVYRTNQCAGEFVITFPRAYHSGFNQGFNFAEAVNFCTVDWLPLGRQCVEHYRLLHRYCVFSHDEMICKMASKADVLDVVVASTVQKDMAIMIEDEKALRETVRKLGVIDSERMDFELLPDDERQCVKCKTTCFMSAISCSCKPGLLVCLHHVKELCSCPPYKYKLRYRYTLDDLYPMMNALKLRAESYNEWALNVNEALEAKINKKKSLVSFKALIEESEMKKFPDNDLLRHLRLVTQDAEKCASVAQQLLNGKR

Structure (SMILES) | protein level of HIF1-α (immunoblot) (HIF1-α in Hep3B cells) | IC50 (PHD2) [µM] | also measured
O=C(NCC1CCC(C(F)(F)F)CC1)c1cnc(-n2cccn2)cc1O (stereo not shown) [Compound 68, 4-Hydroxy-6-(1H-pyrazol-1-yl)-N-((4-(trifluoromethyl)cyclohexyl)methyl) nicotinamide] | – | – | IC50 [1]: > 100 µM; IC50 for off-target sites [2]: very high IC50; IC50 [3]: > 100 µM; protein level of HIF1-α (immunoblot) (HIF1-α in HEK293 T cells): increase cellular HIF-1α; IC50 [4]: > 100 µM
O=C(NCc1ccc(-c2ccccc2)cc1)c1cnc2c(cnc3ccnn32)c1O [Compound 117, N-([1,1′-Biphenyl]-4-ylmethyl)-6-hydroxypyrazolo[1,5-a]pyrido[3,2-e]pyrimidine-7-carboxamide] | increase HIF-1α | 0.001 to 1 | –
O=C(Nc1ccc(-c2ccccc2)cc1)c1cnc2c(cnc3ccnn32)c1O [Compound 119, N-([1,1′-Biphenyl]-4-yl)-6-hydroxypyrazolo[1,5-a]pyrido[3,2-e]pyrimidine-7-carboxamide] | increase HIF-1α | 0.001 to 1 | –
Cc1cc2nc(C)c3c(O)c(C(=O)NCc4ccc(-c5ccccc5)cc4)cnc3n2n1 [Compound 122, N-([1,1′-Biphenyl]-4-ylmethyl)-6-hydroxy-2,5-dimethylpyrazolo[1,5-a]pyrido[3,2-e]pyrimidine-7-carboxamide] | increase HIF-1α | 0.001 to 1 | –
Cc1cc2nc(C)c3c(O)c(C(=O)NCc4ccc(C(F)(F)F)cc4)cnc3n2n1 [Compound 123, 6-Hydroxy-2,5-Dimethyl-N-(4-(trifluoromethyl)benzyl) pyrazolo[1,5-a]pyrido[3,2-e]pyrimidine-7-carboxamide] | increase HIF-1α | 0.001 to 1 | –
N#Cc1cnc(-n2cc(C(=O)NCc3ccc(-c4ccc(C(=O)O)cc4)nc3)cn2)nc1O [Compound 162, 4-(5-((1-(5-cyano-4-hydroxypyrimidin-2-yl)-1H-pyrazole-4-carboxamido)methyl)pyridin-2-yl)benzoic acid] | – | 1 to 10 | –
Cc1cc2nc(C)c3c(O)c(C(=O)NCc4ccc(-c5cccc(N6CCOCC6)c5)nc4)cnc3n2n1 [Compound 176, 6-hydroxy-2,5-dimethyl-N-((6-(3-morpholinophenyl)pyridin-3-yl)methyl) pyrazolo[1,5-a]pyrido[3,2-e]pyrimidine-7-carboxamide] | – | 1 to 10 | –
COc1ccc([C@H](C)NC(=O)c2cnc3c(c(C)nc4cc(C)nn43)c2O)cc1 [Compound 180, (S)-6-hydroxy-N-(1-(4-methoxyphenyl)ethyl)-2,5-dimethylpyrazolo[1,5-a]pyrido[3,2-e]pyrimidine-7-carboxamide] | – | 0.001 to 1 | –
COC(=O)C(=O)N[C@H](Cc1ccccc1)C(=O)OC [DM-NOFD, dimethyl N-oxalyl-D-phenylalanine] | – | – | proliferation and survival (Annexin-V+DAPI+) of AML cells (human THP-1 cells; THP-1 cells, FIH inhibitor DM-NOFD alone or combined): no impact on proliferation and survival of AML cells
CC1(C)CCC(CN2CCN(c3ccc(C(=O)NS(=O)(=O)c4ccc(NCC5CCOCC5)c([N+](=O)[O-])c4)c(Oc4cnc5[nH]ccc5c4)c3)CC2)=C(c2ccc(Cl)cc2)C1 [Venetoclax, venetoclax, reference compound] | – | – | leukaemic burden [5]: decreased leukaemic burden; survival of recipient mice [5]: extended survival of the recipient mice
O=c1c(-n2ccnn2)c[nH]n1-c1cc(N2CCOCC2)ncn1 [molidustat] | – | – | cell death (apoptosis) [6]: induced cell death; proliferation [6]: reduced proliferation
Cc1nc(C(=O)NCC(=O)O)c(O)c2ccc(Oc3ccccc3)cc12 [roxadustat] | – | – | proliferation (human THP-1 cells; THP-1, 50 μM): strong anti-leukaemic activity
